# Measurements: patent US11707442B2, “Antibacterial and antifungal compounds” (The General Hospital Corporation, priority 2015, dated 2023)
# What was measured:
# [1] = system: S. aureus MW2 (MRSA) in neutropenic mouse thigh; format: in vivo
# Description: Deep-seated mouse thigh infection model for evaluating drug efficacy. A previously described protocol to mimic a chronic, deep-tissue infection was used with modifications (See, e.g., Conlon, B. P. et al. Activated ClpP kills persisters and eradicates a chronic biofilm infection. Nature 503, 365-370 (2013)). Six-week-old female CD1 ICR outbred mice (20-25 g) were obtained from Charles River Laboratories. To make mice neutropenic, 150 mg/kg and 100 mg/kg of cyclophosphamide were administered intraperitoneally (i.p.) at 4 days and 1 day before infection, respectively. On the day of infection, ˜10^7 cells of stationary-phase S. aureus MW2 resuspended in 50 μl saline were injected to the right thigh of each mouse. […] Control mice were injected with 200 μl of 10% Kolliphor EL/ethanol in saline i.p. every 12 h for 3 days. After euthanizing mice at 96 h post-infection, blood was collected by cardiac puncture and the infected thighs were aseptically excised. All samples were stored at 4° C. until use. Serum was analyzed for alanine aminotransferase and urea nitrogen content with commercially available kits, following the manufacturer's protocol (Pointe Scientific, Canton, Mich., USA). Thighs were homogenized in PBS and the number of MRSA in homogenates was enumerated by serial dilution and spot-plating on TSA plates, and bacterial load was recorded as CFU/g thigh tissue. […] Statistical significance among each group was analyzed by one-way ANOVA with post-hoc Tukey test using PASW Statistics 18 (SPSS Inc. Chicago, Ill., USA).
# At 12 h after the last treatment, mice were euthanized and their thighs were excised and homogenized. […] Statistical differences between control and antibiotic treatment groups were analyzed by one-way ANOVA and post-hoc Tukey test (***p<0.001).
# At 12 h after the last treatment, mice were euthanized, blood was collected and analyzed for ALT and BUN. […] Control and antibiotic treatment were analyzed by one-way ANOVA and post-hoc Tukey test to confirm a lack of significant difference
# [2] = system: S. aureus; test: Disc clearing assay; format: cell-based, Staphylococcus aureus; details: result in words
# Description: Disc clearing assay: The disc diffusion test was performed on Mueller Hinton (MH) agar plates for bacterial cultures and yeast extract, peptone, dextrose (YPD) for fungal cultures. The assay was repeated 3 times. Discs were soaked in 10 μl of either DMSO or 10 mg/ml compound stock solution and air-dried. Three hundred microliters of an overnight culture of bacteria or fungi were spread on plates. After completely drying the agar plate in a laminar flow hood, DMSO or compound impregnated discs were overlaid on the plate and incubated at 35° C. for 18 hrs.
# The disc diffusion test was carried out in triplicate on cation-adjusted Miller-Hinton agar. 6 mm discs were impregnated with 50 μg of compounds and air-dried. Three hundred microliters of an overnight S. aureus MW2 culture was spread on an agar plate and air-dried. The antimicrobial discs were overlaid on the plate and incubated at 37° C. for 20 hrs.
smiles,measurement,setting,value
"O=C(O)c1ccc2cc(-c3ccc(O)c(C45CC6CC(CC(C6)C4)C5)c3)ccc2c1 [CD437, 6-(4-hydroxy-3-tricyclo[3.3.1.13,7]dec-1-ylphenyl)-2-naphthalenecarboxylic acid]",MRSA cells killed in thigh,"[1]; CD437 20 mg/kg i.p. alone, every 12 h for 3 days",~90%
same,"persisters killed in thigh, combination","[1]; CD437 20 mg/kg i.p. plus gentamicin 30 mg/kg s.c., every 12 h for 3 days",~99%
same,serum levels of ALT or BUN,"[1]; mouse, in vivo, ip, 20 mg/kg",did not have elevated serum levels
same,"zone of inhibition, S. aureus",[2],inhibits the growth
